Experimental data published in ChEMBL document CHEMBL1139487, “Discovery of corticotropin releasing factor 2 receptor selective sauvagine analogues for treatment of skeletal muscle atrophy” (J Med Chem, 2005).

Legend:
[1] = biological target: Corticotropin-releasing factor receptor 2 (Mus musculus, UniProt Q60748); assay: In vitro effective concentration for mouse corticotropin releasing factor 2 receptor
[2] = biological target: T1, Corticotropin-releasing factor receptor 1 (Mus musculus) (UniProt P35347); assay: In vitro agonistic activity against mouse corticotropin releasing factor 1 receptor; format: functional
T1 sequence (whole entry): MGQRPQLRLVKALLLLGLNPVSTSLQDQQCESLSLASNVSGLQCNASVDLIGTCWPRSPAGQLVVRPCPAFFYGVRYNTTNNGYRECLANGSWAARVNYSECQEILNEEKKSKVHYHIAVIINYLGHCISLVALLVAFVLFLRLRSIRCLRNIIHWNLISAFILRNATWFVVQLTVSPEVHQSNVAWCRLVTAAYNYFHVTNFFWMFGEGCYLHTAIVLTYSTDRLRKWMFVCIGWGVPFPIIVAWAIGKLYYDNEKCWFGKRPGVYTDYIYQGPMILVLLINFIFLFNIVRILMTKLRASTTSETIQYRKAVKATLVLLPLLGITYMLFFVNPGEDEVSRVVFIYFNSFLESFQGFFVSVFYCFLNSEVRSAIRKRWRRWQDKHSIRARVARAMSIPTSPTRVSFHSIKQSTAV

[3] = biological target: T2, Corticotropin-releasing factor receptor 1 (Mus musculus, UniProt P35347); assay: In vitro effective concentration for mouse corticotropin releasing factor 1 receptor
T2 sequence (P35347 whole entry): T1 sequence (whole entry)

[4] = organism: Mus musculus; assay: Selectivity ratio of EC50s for mouse corticotropin releasing factor receptors 1 and 2
[5] = biological target: Corticotropin-releasing factor receptor 2 (Mus musculus) (UniProt Q60748); assay: In vitro agonistic activity against mouse corticotropin releasing factor 2 receptor; format: functional
Corticotropin-releasing factor receptor 2 (Mus musculus), sequence (Q60748 whole entry): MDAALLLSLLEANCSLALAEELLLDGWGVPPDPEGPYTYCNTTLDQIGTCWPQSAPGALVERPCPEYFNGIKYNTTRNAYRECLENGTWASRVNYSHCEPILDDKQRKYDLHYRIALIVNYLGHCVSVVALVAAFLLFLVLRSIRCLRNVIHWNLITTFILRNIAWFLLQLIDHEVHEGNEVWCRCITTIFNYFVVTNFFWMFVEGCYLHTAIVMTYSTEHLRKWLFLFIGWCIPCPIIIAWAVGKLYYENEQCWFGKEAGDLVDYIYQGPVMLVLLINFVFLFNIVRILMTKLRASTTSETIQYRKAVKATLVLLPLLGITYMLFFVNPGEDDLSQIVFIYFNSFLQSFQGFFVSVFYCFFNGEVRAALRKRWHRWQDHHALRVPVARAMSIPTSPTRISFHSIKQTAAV

Corticotropin-releasing factor receptor 2, sequence (Q60748 whole entry): as above

Row | SMILES | EC50 [1] | Emax [2] | EC50 [3] | Selectivity [4] | Emax [5]
1 | CC[C@H](C)[C@H](NC(=O)[C@@H](NC(=O)[C@H](CC(=O)O)NC(=O)[C@H](CC(C)C)NC(=O)[C@H](CC(C)C)NC(=O)[C@H](CC(C)C)NC(=O)[C@H](CCCN=C(N)N)NC(=O)[C@H](CC(N)=O)NC(=O)[C@H](CC(N)=O)NC(=O)[C@H](C)NC(=O)[C@H](C)NC(=O)[C@H](CCC(N)=O)NC(=O)[C@H](CCC(N)=O)NC(=O)[C@H](CCCCN)NC(=O)[C@H](CCC(=O)O)NC(=O)[C@H](CCCCN)NC(=O)[C@H](CCC(=O)O)NC(=O)[C@H](CCC(N)=O)NC(=O)[C@H](CCCCN)NC(=O)[C@H](CCC(=O)O)NC(=O)[C@@H](NC(=O)[C@H](CCC(=O)O)NC(=O)[C@@H](NC(=O)[C@H](CCSC)NC(=O)[C@H](CCCCN)NC(=O)[C@H](CCCN=C(N)N)NC(=O)[C@H](CC(C)C)NC(=O)[C@H](CC(C)C)NC(=O)[C@H](Cc1c[nH]c2ccccc12)NC(=O)[C@H](CCC(N)=O)NC(=O)[C@@H]1CCCN1C(=O)[C@H](CC(C)C)NC(=O)[C@H](CC(=O)O)NC(=O)[C@@H](NC(=O)[C@H](CO)NC(=O)[C@@H](NC(=O)[C@@H]1CCCN1C(=O)[C@@H]1CCCN1C(=O)CNC(=O)[C@@H]1CCC(=O)N1)[C@@H](C)CC)[C@@H](C)CC)[C@@H](C)CC)[C@@H](C)CC)[C@@H](C)O)C(=O)O | 21.7 nM | 78% | > 1000 nM | > 46 | 99%
2 | CC[C@H](C)[C@H](NC(=O)[C@@H](NC(=O)[C@H](CC(=O)O)NC(=O)[C@H](CC(C)C)NC(=O)[C@H](CC(C)C)NC(=O)[C@H](CC(C)C)NC(=O)[C@H](CCCN=C(N)N)NC(=O)[C@H](CC(N)=O)NC(=O)[C@H](CC(N)=O)NC(=O)[C@H](C)NC(=O)[C@H](C)NC(=O)[C@H](CCC(N)=O)NC(=O)[C@H](CCC(N)=O)NC(=O)[C@H](CCCCN)NC(=O)[C@H](CCC(=O)O)NC(=O)[C@H](CCCCN)NC(=O)[C@H](CCC(=O)O)NC(=O)[C@H](CCC(N)=O)NC(=O)[C@H](CCCCN)NC(=O)[C@H](CCC(=O)O)NC(=O)[C@@H](NC(=O)[C@H](CCC(=O)O)NC(=O)[C@@H](NC(=O)[C@H](CCSC)NC(=O)[C@H](CCCCN)NC(=O)[C@H](CCCN=C(N)N)NC(=O)[C@H](CC(C)C)NC(=O)[C@H](CC(C)C)NC(=O)[C@H](CCC(N)=O)NC(=O)[C@H](Cc1c[nH]cn1)NC(=O)[C@@H]1CCCN1C(=O)[C@H](CC(C)C)NC(=O)[C@H](CC(=O)O)NC(=O)[C@@H](NC(=O)[C@H](CO)NC(=O)[C@@H](NC(=O)[C@@H]1CCCN1C(=O)[C@@H]1CCCN1C(=O)CNC(=O)[C@@H]1CCC(=O)N1)[C@@H](C)CC)[C@@H](C)CC)[C@@H](C)CC)[C@@H](C)CC)[C@@H](C)O)C(=O)O | 21.3 nM | 100% | 445 nM | 21 | 100%
3 | CC[C@H](C)[C@H](NC(=O)[C@@H](NC(=O)[C@H](CC(=O)O)NC(=O)[C@H](CC(C)C)NC(=O)[C@H](CC(C)C)NC(=O)[C@H](CC(C)C)NC(=O)[C@H](CCCN=C(N)N)NC(=O)[C@H](CC(N)=O)NC(=O)[C@H](CC(N)=O)NC(=O)[C@H](C)NC(=O)[C@H](C)NC(=O)[C@H](CCC(N)=O)NC(=O)[C@H](CCC(N)=O)NC(=O)[C@H](CCCCN)NC(=O)[C@H](CCC(=O)O)NC(=O)[C@H](CCCCN)NC(=O)[C@H](CCC(=O)O)NC(=O)[C@H](CCC(N)=O)NC(=O)[C@H](CCCCN)NC(=O)[C@H](CCC(=O)O)NC(=O)[C@@H](NC(=O)[C@H](CCC(=O)O)NC(=O)[C@@H](NC(=O)[C@H](CCSC)NC(=O)[C@H](CCCCN)NC(=O)[C@H](CCCN=C(N)N)NC(=O)[C@H](CC(C)C)NC(=O)[C@H](CC(C)C)NC(=O)[C@@H](NC(=O)[C@H](CC(C)C)NC(=O)[C@@H]1CCCN1C(=O)[C@H](CC(C)C)NC(=O)[C@H](CC(=O)O)NC(=O)[C@@H](NC(=O)[C@H](CO)NC(=O)[C@@H](NC(=O)[C@@H]1CCCN1C(=O)[C@@H]1CCCN1C(=O)CNC(=O)[C@@H]1CCC(=O)N1)[C@@H](C)CC)[C@@H](C)CC)[C@@H](C)CC)[C@@H](C)CC)[C@@H](C)CC)[C@@H](C)O)C(=O)O | 5 nM | 94% | 106 nM | 21 | 96%
